This note sets out measurements from patent US5776929A, “Benzodiazepine derivative” (Shionogi & Co., Ltd., priority 1993, dated 1998).

“Also recorded” adds a separate entry of the source.

What all share (format): in vivo, rat (male Sprague Dawley)
Assay [1] deals with aspirin-induced gastric mucosa damage. Briefly: Aspirin-induced gastric mucosa damage following continuous administration. Here is the method:
(§1) Male Sprague Dawley rats weighing from 240 to 280 g were used as experimental animals.
(§2) As H2 B, famotidine, and as gastrin receptor antagonist, L-365,260 described in Example 281 of Japanese Patent Publication (KOKAI) 63-238069 (EP 167,919; EP 284,256; U.S. Pat. No. 4,820,834; U.S. Pat. No. 5,004,741)), were used. […] For administration, a suspension of 10 mg famotidine or L-365,260 in 1 ml vehicle (0.5% methyl cellulose solution) was prepared. The combined formulation is a mixture of an equal amount of each suspension.
(§3) A previously determined dose of each test compound (1.0 ml or 3.0 ml/kg) was charged in a syringe and administered orally to a rat directly into gaster using a stainless probe needle (.phi.1.2×L 80 mm) equipped to the syringe.
(§4) B. Continuous administration test
(§5) (A) A group consists of animals that received vehicle (0.5% methyl cellulose solution, 1 ml/kg).
(§6) (B) A group consists of animals that received famotidine (a suspension of 10 mg famotidine in 1 ml 0.5% methyl cellulose) continuously at a dose of 10 or 30 mg/kg/day.
(§7) (C) A group consists of animals that received L-365,260 continuously at a dose of 10 mg/kg/day.
(§8) (D) A group consists of animals that received a combined formulation of famotidine and L-365,260 at a dose of 10 mg/kg/day for each compound.
(3) Aspirin-induced gastric mucosa damage following a continuous administration of famotidine
After two-day-interruption following a continuous administration of famotidine, aspirin (200 mg/kg) was administered to rats orally. Seven hours later, gaster was extracted under ether anesthetization and subjected to formalin treatment with 1% formalin solution. The length (mm) of gastric mucosa damage appearing around fundic glands was then measured. Lesion index was calculated by adding all the measurements. Rats had been starved for 24 hr before aspirin administration (ad libitum for water).

The test system of assay [2] is gastric damage due to stress induced by restricted water-immersion. Briefly: Gastric damage due to stress induced by restricted water-immersion (single administration). The following applies: for lesion index (% to control): 10 rats. As to the method: as §1, §2, §3
(1) Gastric damage due to stress induced by restricted water-immersion (single administration test)
Twenty four hour starved (ad libitum for water) male Sprague Dawley rats (270-290 g) were orally administered with a test compound and, 30 min later, were loaded with stress in the following manner. Rats were placed in a stress cage (Natsume Seisakusyo) and immersed in water tank at 23° C. upto the level of pectoral processus xiphoideus [Takagi et al, Chem. Pharm. Bull (Tokyo) 12, 465-472 (1964)]. Seven hours later, animals were withdrawn from the water tank and killed with ether. The gaster was extracted and 1% formalin solution (13 ml) was injected in it. […] The gaster was observed under anatomic microscope (x10) and longer diameter (mm) of each damages (bleeding erosion) appearing around fundic glands was measured.

Another assay deals with gastric acid secretion. Briefly: Basic gastric acid secretion after interruption following continuous administration (pylorus ligation). The following applies: for basic gastric acid secretion (in words): P<0.05. As to the method:
as §1, §2, §3, §4, §5, §6, §7, §8
(2) Basic gastric acid secretion after interruption following the continuous administration of famotidine
To a rat bred normally was administered continuously famotidine at a dose of 10 or 30 mg/kg/day for a week. After the final administration, the basis gastric acid secretion (total acid excretion) was determined according to the pylorus ligation method (4-hour-method) [Shay, H. et al., Gastroenterology, 5: 43-61 (1945)]. The determination was carried out following the final administration, […], […]
Thus, rats were subjected to laparotomy under ether anesthetization and pylorus was ligated. Four hours later, gaster was extracted under ether anaesthetization and the accumulated gastric juice was collected. After centrifugation (3000 rpm, 10 min), pH and acidity of gastric juice was determined. The acidity was measured upto pH 7.0 with 0.1N NaOH. The total acid secretion (μEq/4 hr) was calculated by multiplying acidity by the volume of juice for each animal.

[3] abbreviates: immediately after 7 days, 10 mg/kg/day.
The mark [4] stands for this setting: immediately after 7 days, 30 mg/kg/day.

As to `NC(N)=Nc1nc(CSCCC(N)=NS(N)(=O)=O)cs1` [Famotidine, famotidine], in assay [1] (10 mg/kg p.o., 7 days, aspirin 200 mg/kg after two-day interruption), the “lesion index (mm^2)” value was determined as 67.0 ± 14.2 mm^2. In assay [1] (continuous administration, two-day interruption), the “aspirin-induced gastric mucosa damage (in words)” value is given as “the condition deteriorated significantly; also recorded: the ulcer index got worse significantly on the 2nd day after interruption”. Besides, the “lesion index (% to control)” value in assay [2] (1 mg/kg p.o.) and in assay [2] (3 mg/kg p.o.) was 33.4 ± 5.5 % to control in each case. In addition, in assay [2] (3 mg/kg), the “inhibition of appearance of stress gastric damage (in words)” value is listed as “inhibited the appearance significantly”. Moreover, the “basic gastric acid secretion (in words)” value in the assay with gastric acid secretion (10 mg/kg/day, after a 48-hour interruption) is reported as “increased significantly”; in the assay with gastric acid secretion (10 mg/kg/day, immediately after interrupting) it was “inhibited significantly”; in the assay with gastric acid secretion (30 mg/kg/day, after a 4-day interruption) it was “increased significantly”; in the assay on gastric acid secretion (30 mg/kg/day, immediately after interrupting), “inhibited significantly”. In addition, in the assay on gastric acid secretion (2nd day after interruption following continuous administration), the “increase in the basic acid secretion, acid rebound (in words)” value is “An increase in the basic acid secretion (acid rebound) was observed”. Further, the “inhibition (%) of total acid secretion” value is reported as -38.3% with gastric acid secretion (24 hr after 7-day treatment, 10 mg/kg/day); -105.7% with gastric acid secretion (48 hr after 7-day treatment, 10 mg/kg/day); -45.3% in the assay with gastric acid secretion (day 3 after 7-day treatment, 30 mg/kg/day); -44.2% in the assay with gastric acid secretion (day 4 after 7-day treatment, 30 mg/kg/day); 61.6% with gastric acid secretion (setting [3]); 59.9% in the assay on gastric acid secretion (setting [4]). Besides, the total acid secretion is on record as 821.0 ± 214.2 μEq/4 hr with gastric acid secretion (24 hr after 7-day treatment, 10 mg/kg/day (Table 4)); 948.9 ± 187.5 μEq/4 hr with gastric acid secretion (48 hr after 7-day treatment, 10 mg/kg/day (Table 4)); 788.4 ± 217.7 μEq/4 hr with gastric acid secretion (day 2 after 7-day treatment, 10 mg/kg/day (Table 6)); 682.4 ± 132.6 μEq/4 hr with gastric acid secretion (day 3 after 7-day treatment, 10 mg/kg/day (Table 6)); 151.8 ± 29.8 μEg/49 hr with gastric acid secretion (setting [3]); 158.4 ± 54.9 μEg/49 hr in the assay with gastric acid secretion (setting [4]).
